From publication PMC12867150, “A fungi-derived cyclic peptide enhances Th9-mediated antitumor immunity by targeting ZAP70 and SREBP1” (The Journal of Clinical Investigation, 2025)

Legend:
human Th9 cells = assay: Intracellular ATP of human Th9 cells (Figure 8E); format: cell-based; conditions: result in words
Experimental: For Th9 polarization, cultures were supplemented with IL-4 (10 ng/mL, PeproTech, catalog AF-200-04), TGF-β (1 ng/mL), and neutralizing anti–IFN-γ monoclonal antibody (10 μg/mL, clone B27, BioXcell, catalog BE0245). After 3 days of initial culture, cells were either collected for downstream assays or continued in extended culture with refreshed cytokines to maintain lineage commitment without antibodies. Th9 cells were collected at days 4, 5, and 6 for subsequent in vitro assays. For adoptive transfer studies, day 4–cultured Th9 cells were washed and prepared for intravenous injection.
Intracellular adenosine triphosphate (ATP) levels were measured using a chemiluminescent ATP assay kit (Beyotime, catalog S0026) according to the manufacturer’s protocol. Briefly, cells were lysed and incubated with the luciferase-based detection reagent, and the resulting luminescent signal was detected using an Infinite M200 multimode microplate reader (TECAN). ATP concentrations were calculated based on a standard curve and normalized to cell number or protein content where applicable.

Th9 cells = assay: Screening of 65 natural compounds for IL-9 production by Th9 cells (Figure 1B); format: cell-based, mouse; conditions: 10 μM; result in words
Description: To identify natural small molecules that enhance the antitumor potential of Th9 cells, we constructed a chemically and structurally defined small-molecule library derived from endophytic fungi isolated from G. lucidum and Periplaneta americana (Supplemental Table 1; supplemental material available online with this article; https://doi.org/10.1172/JCI196907DS1). This library comprised 65 structurally diverse metabolites classified into 11 distinct scaffold families, with each compound structurally elucidated via NMR spectroscopy and verified against previously reported spectral data. To functionally evaluate the immunomodulatory potential of these compounds, we systematically screened the library for their ability to promote Th9 cell differentiation, assessed by intracellular IL-9 expression using flow cytometry (Figure 1, A and B).
Naive CD4^+ T cells were isolated from the spleens of C57BL/6J or CD45.1^+ OT-II mice using the MojoSort Mouse CD4 Naive T Cell Isolation Kit (BioLegend, catalog 480040), following the manufacturer’s protocol. Purified cells were cultured in RPMI-1640 medium supplemented with 10% FBS, 1% penicillin-streptomycin, and 0.1% β-mercaptoethanol (Gibco, catalog 21985023). […]

[1] = test system: EpA-binding proteins in Th9 cell lysates; assay: EpA-biotin pulldown and LC-MS/MS (Figure 5A, S7A-B); design: species or system mouse; conditions: result in words
Experimental: Cell lysates from Th9 cells were incubated overnight at 4 °C with EpA-biotin or biotin alone (control). Streptavidin-conjugated magnetic beads were added to capture biotinylated compounds and their interacting proteins. After washing, the bead-bound proteins were resolved by SDS-PAGE and visualized by silver staining. Distinct protein bands were excised, subjected to in-gel enzymatic digestion, and analyzed via liquid chromatography–tandem mass spectrometry (LC-MS/MS) to identify putative EpA-binding proteins.

## anteiso-C15 Leu7 surfactin [EpA]
Human Th9 cells
  ATP production, human Th9: increased
Th9 cells
  Th9 polarization in screen: most potent enhancer of Th9 polarization
[1]
  EpA pulldown, ZAP70: top candidate
